In brackets after ≈: the same amount, converted by molar mass. Like-named read-outs stand apart in the source and are kept apart here.
Tests used:
[1] = tested on: Klebsiella pneumoniae cKP1; test: MIC testing; assay type: cell-based
[2] = tested on: Acinetobacter baumannii 98-37-09; test: MIC testing; assay type: cell-based; settings: 983709
[3] = tested on: Enterobacter cloacae PMD1001; test: MIC testing; assay type: cell-based
Staphylococcus aureus = test: MIC testing; assay type: cell-based
Escherichia coli 8295 [4] = test: MIC testing; assay type: cell-based
[5] = tested on: Pseudomonas aeruginosa PA01; test: MIC testing; assay type: cell-based
[6] = tested on: Enterococcus faecium 824-05; test: MIC testing; assay type: cell-based; settings: 82405
Escherichia coli 8295 [7] = test: AK assay 96-well format; assay type: cell-based
[8] = tested on: Pseudomonas aeruginosa PA01; test: AK assay 96-well format; assay type: cell-based
[9] = tested on: Enterobacter cloacae PMD1001; test: AK assay 96-well format; assay type: cell-based
[10] = tested on: Klebsiella pneumoniae cKP1; test: AK assay 96-well format; assay type: cell-based
[11] = tested on: Enterococcus faecium 824-05; test: AK assay 96-well format; assay type: cell-based
[12] = tested on: S. aureus SCV strain UAMS-1112; test: Small-colony variant AK assay (with plating); assay type: cell-based, Staphylococcus aureus; settings: S. aureus UAMS-1112; 1× or 10×MIC for 3 h
Protocol: Thirty-six-hour cultures of S. aureus strain UAMS-1112 were used to inoculate (1:100 dilution) 100 ml of fresh MH medium and grown at 37° C. on a rotary shaker at 225 rpm to an optical density (600 nm) of 0.1 to 0.2, corresponding to ˜1×10^6 CFU ml^−1. Cells were pelleted by centrifugation and resuspended in 2 ml of fresh MH medium. Ninety-eight microliters of MH medium containing 5×10^6 bacteria and 2 μl of the indicated antibiotic were added to individual wells of a white-walled, 96-well microtiter plate. Well components were mixed by pipetting and incubated at 37° C. for 3 h. The plate was equilibrated to room temperature for 30 min. Next, 100 μl of ToxiLight AK reagent was added to each well, followed by incubation at room temperature for 30 min, and luminescence was measured using a SpectraMax M5 plate reader.
SCV are slow-growing populations of bacterial species that have been hypothesized to cause latent or recurrent infections and are tolerant of standard antibiotic treatment regimens. Based on the aberrant SCV growth characteristics, typical growth-based HTS assays would be difficult to employ. Accordingly, the ability of the AK assay to identify agents that kill S. aureus SCV strain UAMS-1112 was tested. […].

K. pneumoniae = test: AK assay 384-well format, Prestwick library screening; assay type: cell-based, Klebsiella pneumoniae; settings: Klebsiella pneumoniae, 3 h; 50 μM final drug concentration; 384-well format; cutoff for positive-scoring molecules 3-fold increase; read-out: AK-based Prestwick Library Screening Results, K. pneumoniae (increase in extracellular AK activity)
[13] = tested on: A. baumannii strain 98-37-09; test: as above; assay type: cell-based, Acinetobacter baumannii; settings: Acinetobacter baumannii, 983709, 3 h; 50 μM final drug concentration; 384-well format; cutoff for positive-scoring molecules 3-fold increase; read-out: AK-based Prestwick Library Screening Results, A. baumannii (increase in extracellular AK activity)
E. cloacae = test: as above; assay type: cell-based, Enterobacter cloacae; settings: Enterobacter cloacae, 3 h; 50 μM final drug concentration; 384-well format; cutoff for positive-scoring molecules 3-fold increase; read-out: AK-based Prestwick Library Screening Results, E. cloacae (increase in extracellular AK activity)
E. faecium = test: as above; assay type: cell-based, Enterococcus faecium; settings: Enterococcus faecium, 3 h; 50 μM final drug concentration; 384-well format; cutoff for positive-scoring molecules 3-fold increase; read-out: AK-based Prestwick Library Screening Results, E. faecium (increase in extracellular AK activity)
E. coli = test: as above; assay type: cell-based, Escherichia coli; settings: Escherichia coli, 3 h; 50 μM final drug concentration; 384-well format; cutoff for positive-scoring molecules 3-fold increase; read-out: AK-based Prestwick Library Screening Results, E. coli (increase in extracellular AK activity)
P. aeruginosa = test: as above; assay type: cell-based, Pseudomonas aeruginosa; settings: Pseudomonas aeruginosa, 3 h; 50 μM final drug concentration; 384-well format; cutoff for positive-scoring molecules 3-fold increase; read-out: AK-based Prestwick Library Screening Results, P. aeruginosa (increase in extracellular AK activity)
[14] = tested on: S. aureus strain USA300-0114; test: as above; assay type: cell-based, Staphylococcus aureus; settings: Staphylococcus aureus, USA300, 3 h; 50 μM final drug concentration; 384-well format; cutoff for positive-scoring molecules 3-fold increase; read-out: AK-based Prestwick Library Screening Results, S. aureus (increase in extracellular AK activity)
[15] = Acinetobacter baumannii 98-37-09, read-out: MIC
[16] = Klebsiella pneumoniae cKP1, read-out: MIC
[17] = Staphylococcus aureus USA300-0114, read-out: MIC
[18] = Enterococcus faecium 824-05, read-out: MIC

Row | Structure (SMILES) | MIC ([1]; Klebsiella pneumoniae, CKP1) | MIC [2, 15] | MIC [3] | MIC (Staphylococcus aureus; Staphylococcus aureus) | MIC (Staphylococcus aureus; Staphylococcus aureus, USA300) | MIC (Escherichia coli 8295 [4]) | MIC [5] | MIC ([6]; Enterococcus faecium) | Fold increase in AK signal (Escherichia coli 8295 [7]; treatment 0.5×MIC) | Fold increase in AK signal (Escherichia coli 8295 [7]; treatment 1.0×MIC) | MIC [1, 16] | MIC ([3]; read-out: MIC) | MIC (Staphylococcus aureus; [17]) | MIC (Escherichia coli 8295 [4]; read-out: MIC) | MIC ([5]; read-out: MIC) | Fold increase in AK signal ([8]; treatment 0.5×MIC) | Fold increase in AK signal ([9]; treatment 0.5×MIC) | Fold increase in AK signal ([9]; treatment 1.0×MIC) | MIC [6, 18] | Fold increase in AK signal ([10]; treatment 1.0×MIC) | further results
1 | CC1(C)S[C@@H]2[C@H](NC(=O)[C@H](N)c3ccccc3)C(=O)N2[C@H]1C(=O)O [Ampicillin, ampicillin] | > 256 µg/mL | 256 µg/mL (≈ 733 µM) | > 256 µg/mL | 2 µg/mL (≈ 5.72 µM) | > 256 µg/mL | 128 µg/mL (≈ 366 µM) | > 256 µg/mL | > 256 µg/mL | 50 fold | 74 fold |  |  |  |  |  |  |  |  |  |  | 
2 | CO/N=C(\C(=O)N[C@@H]1C(=O)N2C(C(=O)O)=C(CSc3nc(=O)c(=O)[nH]n3C)CS[C@H]12)c1csc(N)n1 [Ceftriaxone, ceftriaxone] |  | 8 µg/mL (≈ 14.4 µM) |  | 2 µg/mL (≈ 3.61 µM) |  |  |  |  | 51 fold | 76 fold | 2 µg/mL (≈ 3.61 µM) | 2 µg/mL (≈ 3.61 µM) | > 256 µg/mL | 2 µg/mL (≈ 3.61 µM) | 4 µg/mL (≈ 7.21 µM) | 2 fold | 20 fold | 17 fold | > 256 µg/mL | 55 fold | Fold increase in AK signal ([8]; treatment 1.0×MIC): 14 fold; Fold increase in AK signal ([10]; treatment 0.5×MIC): 50 fold
3 | NC[C@H]1O[C@H](O[C@H]2[C@H](O)[C@@H](O[C@H]3O[C@H](CO)[C@@H](O)[C@H](N)[C@H]3O)[C@H](N)C[C@@H]2N)[C@H](O)[C@@H](O)[C@@H]1O [Kanamycin, kanamycin] |  | 2 µg/mL (≈ 4.13 µM) |  | 16 µg/mL (≈ 33 µM) | > 256 µg/mL |  |  | > 256 µg/mL | 55 fold | 70 fold | 2 µg/mL (≈ 4.13 µM) | 2 µg/mL (≈ 4.13 µM) |  | 32 µg/mL (≈ 66 µM) | 256 µg/mL (≈ 528 µM) |  | 1 fold | 1 fold |  | 1 fold | Fold increase in AK signal ([10]; treatment 0.5×MIC): 1 fold
4 | CC(=O)NC[C@H]1CN(c2ccc(N3CCOCC3)c(F)c2)C(=O)O1 [Linezolid, linezolid] | > 256 µg/mL | 256 µg/mL (≈ 759 µM) | > 256 µg/mL | 2 µg/mL (≈ 5.93 µM) |  | > 256 µg/mL | > 256 µg/mL |  |  |  |  |  | 2 µg/mL (≈ 5.93 µM) |  |  |  |  |  | 16 µg/mL (≈ 47.4 µM) |  | Fold increase in AK signal ([11]; treatment 0.5×MIC): 2 fold; Fold increase in AK signal ([11]; treatment 1.0×MIC): 2 fold
5 | C[C@@H](O)[C@H]1C(=O)N2C(C(=O)O)=C(S[C@@H]3CN[C@H](C(=O)N(C)C)C3)[C@H](C)[C@H]12 [Meropenem, meropenem] |  | 2 µg/mL (≈ 5.22 µM) |  | 2 µg/mL (≈ 5.22 µM) |  |  |  | > 256 µg/mL | 60 fold | 85 fold | 2 µg/mL (≈ 5.22 µM) | 2 µg/mL (≈ 5.22 µM) | 4 µg/mL (≈ 10.4 µM) | 2 µg/mL (≈ 5.22 µM) | 2 µg/mL (≈ 5.22 µM) | 45 fold | 99 fold | 296 fold |  | 220 fold | decrease in SCV viability (plating) [12]: 0.5 log; increase in AK signal compared to mock-treated cells [12]: 2.5 fold; Fold increase in AK signal ([8]; treatment 1.0×MIC): 39 fold
6 | CN(C)c1ccc(O)c2c1C[C@H]1C[C@H]3[C@H](N(C)C)C(O)=C(C(N)=O)C(=O)[C@@]3(O)C(O)=C1C2=O [Minocycline, minocycline] |  | 1 µg/mL (≈ 2.19 µM) |  | 8 µg/mL (≈ 17.5 µM) |  |  |  |  | 4 fold | 38 fold | 64 µg/mL (≈ 140 µM) | 4 µg/mL (≈ 8.74 µM) | 1 µg/mL (≈ 2.19 µM) | 16 µg/mL (≈ 35 µM) | 32 µg/mL (≈ 69.9 µM) | 1 fold | 4 fold | 9 fold | 1 µg/mL (≈ 2.19 µM) | 1 fold | Fold increase in AK signal ([11]; treatment 0.5×MIC): 3 fold; Fold increase in AK signal ([11]; treatment 1.0×MIC): 4 fold; Fold increase in AK signal ([8]; treatment 1.0×MIC): 6 fold; Fold increase in AK signal ([10]; treatment 0.5×MIC): 1 fold
7 | Cc1cc(NS(=O)(=O)c2ccc(N)cc2)no1 [Sulfamethoxazole, sulfamethoxazole] |  | 8 µg/mL (≈ 31.6 µM) |  | 2 µg/mL (≈ 7.9 µM) |  |  |  |  |  |  | > 256 µg/mL | > 256 µg/mL | > 256 µg/mL | > 256 µg/mL | 256 µg/mL (≈ 1010 µM) |  |  |  | > 256 µg/mL |  | fold induction at 50 µM (K. pneumoniae): 0.6; fold induction at 50 µM [13]: 1.3; fold induction at 50 µM (E. cloacae): 0.7; fold induction at 50 µM (E. faecium): 1; fold induction at 50 µM (E. coli): 0.7; fold induction at 50 µM (P. aeruginosa): 0.7; fold induction at 50 µM [14]: 0.7
8 | CN[C@H](CC(C)C)C(=O)N[C@H]1C(=O)N[C@@H](CC(N)=O)C(=O)N[C@H]2C(=O)N[C@H]3C(=O)N[C@H](C(=O)N[C@H](C(=O)O)c4cc(O)cc(O)c4-c4cc3ccc4O)[C@H](O)c3ccc(c(Cl)c3)Oc3cc2cc(c3O[C@@H]2O[C@H](CO)[C@@H](O)[C@H](O)[C@H]2O[C@H]2C[C@](C)(N)[C@H](O)[C@H](C)O2)Oc2ccc(cc2Cl)[C@H]1O [Vancomycin, vancomycin] | > 256 µg/mL |  | > 256 µg/mL | 2 µg/mL (≈ 1.38 µM) | 1 µg/mL (≈ 0.69 µM) | 16 µg/mL (≈ 11 µM) | > 256 µg/mL | 2 µg/mL (≈ 1.38 µM) | 1 fold | 2 fold |  |  |  |  |  |  |  |  |  |  | MIC ([2]; Acinetobacter baumannii): 64 µg/mL (≈ 44.2 µM); decrease in SCV viability (plating) [12]: no effect; increase in AK signal compared to mock-treated cells [12]: no change; Fold increase in AK signal ([11]; treatment 0.5×MIC): 1 fold; Fold increase in AK signal ([11]; treatment 1.0×MIC): 2 fold

Source: patent publication US10004701B2, “Methods and compositions for treating infection” (UNIVERSITY OF ROCHESTER, priority 2012, dated 2018)
